# Patent US20220356232A1, “A COMBINATION OF PLASMA IMMUNOGLOBULIN AND ANTIGEN-SPECIFIC IMMUNOGLOBULIN FOR THE MODIFICATION OF THE IMMUNE SYSTEM AND THE TREATMENT OR PREVENTION OF AUTOIMMUNE DISEASES” (Network Immunology Inc., priority 2019, published 2022)
# Legend:
# Assay type in all cases: in vivo, C57BL/6 mice
# [1] = test system: DSS-induced chronic colitis; assay: DSS-induced chronic colitis: body weight and colon length (Example 6)
# [2] = test system: colonic explants from mice with chronic colitis; assay: Cytokine release from 24 hr colonic explant cultures, chronic colitis (Example 6); conditions: 24 hr colonic explant cultures harvested at 38 d; FIG. 8
# [3] = test system: DSS-induced chronic colitis; assay: Effect of T depletion (anti-CD4 mAb) on protection from DSS-induced chronic colitis; conditions: no anti-CD4 mAb
# [4] = test system: PP cells isolated from colonic tissue; assay: FACS staining of CD3+ and Foxp3+ cells in PP cells isolated from colonic tissue, chronic colitis; conditions: DSS chronic colitis, treatment as per FIG. 7A
# [5] = test system: DSS-induced acute colitis; assay: DSS-induced acute colitis (Example 6); conditions: 3% DSS 7 days; treatment from time of DSS exposure; FIGS. 12A-12C
# Source text: Wild-type (WT) C57BL/6 female mice, with high susceptibility to DSS-induced colitis, were used throughout and purchased from the Jackson laboratories (Bar Harbor, Me.). All mice were housed five per cage under specific pathogen-free conditions, allowed standard diet and water ad libitum, and used at 6-8 wk of age. Acute DSS colitis was induced by giving mice distilled drinking water containing 3% (wt./vol) DSS (Mol.Wt.=40 kDa; ICN Biochemicals, Aurora, Ohio) for 7 days. For induction of chronic colitis, mice were treated with 5 days of 2.5% DSS followed by 7 days of normal drinking water for a total of 3 cycles. Body weight was measured three times/week throughout the experiment. The maximum mortality observed following induction of acute colitis was 15% averaged over all studies, while no significant mortality was seen any groups in the chronic colitis model. Maximum weight loss in either model was ˜25%. […] In FIG. 12A, changes in body weight are expressed as a percent weight loss from baseline and plotted versus time post initiation of DSS treatment (x-axis). […] In FIGS. 12B and 12C, changes in colon length and 24 hr cytokine production from colon explant cultures respectively were assessed on day 9 following initiation of DSS treatment for mice shown in FIG. 12A and are expressed as mean±SD.
smiles,measurement,setting,value
C[C@]12CCC(=O)C=C1CC[C@@H]1[C@@H]2[C@@H](O)C[C@@]2(C)[C@H]1CC[C@]2(O)C(=O)COC(=O)CCC(=O)O [Solu-Cortef],weight loss in second and third cycle of DSS treatment,"[1]; Ig weekly ×5 im from start of first DSS cycle, Solu-Cortef 6 μg/mouse alternate days, FIG. 7A",attenuation of weight loss
same,suppression of disease in chronic colitis,"[1]; all DSS cycles, 6 μg/mouse on alternate days",active in suppressing disease at all times
same,"release of inflammatory cytokines IFNγ, TNFα, IL-1β, IL-17 and IL-6",[2],No such increased inflammatory cytokine release
same,weight loss after induction of chronic colitis,"[3]; 5 mice/group, FIG. 9A",protected
same,release of inflammatory cytokines from colon explant cultures,[3]; FIG. 10,attenuation of release
same,% Ant-CD3,[4]; PP cells from 2-3 mice/group,4.4 ± 2.2%
same,% Anti-Foxp3,[4]; PP cells from 2-3 mice/group,0.2 ± 0.2%
same,Foxp3:CD3,"[4]; ratio, PP cells",0.04
same,"protection from pathology of acute colitis (weight loss, colon length, production of inflammatory cytokines)",[5],protected
